Data on 28 compounds can be found in patent US11236069B2, “KIF18A inhibitors” (AMGEN INC., priority 2018, dated 2022).

Structures are written as SMILES.

Recombinant human KIF18A (1-467 His-tagged) protein, sequence (Q8NI77 1-467): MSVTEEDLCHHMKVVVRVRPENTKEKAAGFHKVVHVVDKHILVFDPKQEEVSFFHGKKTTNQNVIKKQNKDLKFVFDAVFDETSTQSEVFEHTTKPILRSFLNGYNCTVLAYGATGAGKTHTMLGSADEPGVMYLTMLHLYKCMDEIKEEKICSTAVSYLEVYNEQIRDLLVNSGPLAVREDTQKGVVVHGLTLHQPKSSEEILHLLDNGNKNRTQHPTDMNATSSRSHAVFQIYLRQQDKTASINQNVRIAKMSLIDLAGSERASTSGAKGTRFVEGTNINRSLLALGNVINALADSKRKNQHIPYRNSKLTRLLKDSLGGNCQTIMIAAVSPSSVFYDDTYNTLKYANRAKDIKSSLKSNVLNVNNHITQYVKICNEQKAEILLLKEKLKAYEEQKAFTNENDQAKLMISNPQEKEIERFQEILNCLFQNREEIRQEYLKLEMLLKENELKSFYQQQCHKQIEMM
Recombinant human KIF18A (1-467 His-tagged) protein, sequence (P02550 whole entry partner): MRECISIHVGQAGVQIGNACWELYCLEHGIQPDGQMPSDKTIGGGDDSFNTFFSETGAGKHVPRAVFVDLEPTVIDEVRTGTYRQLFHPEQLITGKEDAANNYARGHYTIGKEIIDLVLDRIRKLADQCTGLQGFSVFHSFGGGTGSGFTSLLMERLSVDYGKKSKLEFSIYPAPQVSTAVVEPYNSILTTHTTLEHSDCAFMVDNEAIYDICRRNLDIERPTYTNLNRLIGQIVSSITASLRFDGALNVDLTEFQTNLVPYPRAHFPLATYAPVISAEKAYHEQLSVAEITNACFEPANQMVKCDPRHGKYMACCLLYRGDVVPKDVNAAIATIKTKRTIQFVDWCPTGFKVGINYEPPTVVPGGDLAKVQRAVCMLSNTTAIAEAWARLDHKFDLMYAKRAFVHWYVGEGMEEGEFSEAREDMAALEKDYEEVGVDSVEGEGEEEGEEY
Recombinant human KIF18A (1-467 His-tagged) protein, sequence (P02554 whole entry partner): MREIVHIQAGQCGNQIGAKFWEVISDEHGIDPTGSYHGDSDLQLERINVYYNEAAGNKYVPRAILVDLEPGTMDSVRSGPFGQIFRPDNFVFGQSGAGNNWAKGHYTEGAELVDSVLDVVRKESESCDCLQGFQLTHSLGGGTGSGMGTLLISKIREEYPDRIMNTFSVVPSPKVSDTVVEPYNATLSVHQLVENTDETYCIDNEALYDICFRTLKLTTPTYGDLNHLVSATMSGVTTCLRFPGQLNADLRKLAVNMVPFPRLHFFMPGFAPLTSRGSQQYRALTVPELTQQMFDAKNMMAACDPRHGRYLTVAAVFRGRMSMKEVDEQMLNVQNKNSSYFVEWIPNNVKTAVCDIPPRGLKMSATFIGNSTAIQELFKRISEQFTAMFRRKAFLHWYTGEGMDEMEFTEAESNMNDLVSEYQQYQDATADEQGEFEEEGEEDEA

One assay concerns the target Recombinant human KIF18A (1-467 His-tagged) protein (Homo sapiens (Human), UniProt Q8NI77). The assay is described as follows: KIF18A Enzyme Assay: microtubule-stimulated ATPase activity (ADP-Glo). The conditions noted are these: read-out: KIF18A ATPase IC50. (ADP-Glo first removes unused ATP, then detects ADP through luciferase.)
From the text: KIF18A Enzyme Assay: Microtubule-stimulated ATPase activity assay is used to measure KIF18A enzyme activity after treatment with compound. Compounds were 2-fold serially diluted in DMSO (Sigma Inc) over 22-point concentration range. […] The assay measures ADP formed from the ATPase reaction.
As to `Cc1cc(NC(=O)c2ccc(NS(=O)(=O)[C@@H](C)CO)cc2N2CCC3(CC2)CC3)nc(N2CCC(F)(F)CC2)n1` [Example 5-2, (S)-N-(2-(4,4-Difluoropiperidin-1-yl)-6-methylpyrimidin-4-yl)-4-((2-hydroxy-1-methylethyl)sulfonamido)-2-(6-azaspiro[2.5]octan-6-yl)benzamide], the IC50 (commonly the concentration needed to halve the response being measured) stood at 70 nM.

The assay is the same for the next values; noted with them: read-out: KIF18A ATPase IC50; 30 nM KIF18A, 30 μg/mL pig microtubules, ATP at Km 75 μM, ADP-Glo luminescence.
With `Cc1cc(NC(=O)c2ccc(S(=O)(=O)[C@@H]3COC[C@H]3O)cc2N2CCC3(CC2)CC3)nc(N2CCC(F)(F)CC2)n1` [Example 14-7, N-(2-(4,4-Difluoropiperidin-1-yl)-6-methylpyrimidin-4-yl)-4-(((3R,4R)-4-hydroxytetrahydrofuran-3-yl)sulfonyl)-2-(6-azaspiro[2.5]octan-6-yl)benzamide], the IC50 turned out to be 94 nM.

Turning to `CC[S@@](=N)(=O)c1ccc(C(=O)Nc2cc(C)nc(N3CCC(F)(F)CC3)n2)c(N2CCC3(CC2)CC3)c1` [Example 19-3, 2-(6-Azaspiro[2.5]octan-6-yl)-N-(2-(4,4-difluoro-1-pieridinyl)-6-methyl-4-pyrimidinyl)-4-(S-ethylsulfonimidoyl)benzamide], the IC50 is 78 nM.

Regarding `COCCS(=O)(=O)Nc1ccc(C(=O)Nc2cc(C)nc(N3CCC(F)(F)CC3)n2)c(N2CCC3(CC2)CC3)c1` [Example 6-17, N-(2-(4,4-Difluoropiperidin-1-yl)-6-methylpyrimidin-4-yl)-4-((2-methoxyethyl)sulfonamido)-2-(6-azaspiro[2.5]octan-6-yL)benzamide], the IC50 was 32 nM.

On to `Cc1cc(NC(=O)c2ccc(NS(=O)(=O)C(C)(C)C)cc2N2CCC3(CC2)CC3)nc(N2CCC(F)(F)CC2)n1` [Example 6-14, N-(2-(4,4-Difluoropiperidin-1-yl)-6-methylpyrimidin-4-yl)-4-((1,1-dimethylethyl)sulfonamido)-2-(6-azaspiro[2.5]octan-6-yl)benzamide], for which the IC50 worked out at 413 nM.

As for `Cc1cc(NC(=O)c2ccc(NS(=O)(=O)C[C@H](C)O)cc2N2CCC3(CC2)CC3)nc(N2CCC(F)(F)CC2)n1` [Example 6-32-2, (S)-N-(2-(4,4-Difluoropiperidin-1-yl)-6-methylpyrimidin-4-yl)-4-((2-hydroxypropyl)sulfonamido)-2-(6-azaspiro[2.5]octan-6-yl)benzamide], the IC50 came to 141 nM.

Regarding `Cc1cc(NC(=O)c2ccc(NS(=O)(=O)C[C@@H](C)O)cc2N2CCC3(CC2)CC3)nc(N2CCO[C@H](C)C2)n1` [Example 6-27-1, 4-(((R)-2-Hydroxypropoyl)sulfonamido)-N-(6-methyl-2-((R)-2-methylmorpholino)pyrimidin-4-yl)-2-(6-azaspiro[2.5]octan-6-yl)benzamide], the IC50 came to 162 nM.

Turning to `Cc1cc(NC(=O)c2ccc(NS(=O)(=O)[C@H](C)CO)cc2N2CCC3(CC2)CC3)nc(N2CCC(F)CC2)n1` [Example 6-25-2, (R)-N-(2-(4-Fluoropiperidin-1-yl)-6-methylpyrimidin-4-yl)-4-((2-hydroxy-1-methylethyl)sulfonamido)-2-(6-azaspiro[2.5]octan-6-yl)benzamide], the IC50 was found to be 41 nM.

Turning to `Cc1cc(NC(=O)c2ccc(NS(=O)(=O)C3([C@@H](C)O)CC3)cc2N2CCC3(CC2)CC3)nc(N2CCC(F)(F)CC2)n1` [Example 6-31-1, (R)-N-(2-(4,4-Difluoropiperidin-1-yl)-6-methylpyrimidin-4-yl)-4-((1-(1-hydroxyethyl)cyclopropane)-1-sulfonamido)-2-(6-azaspiro[2.5]octan-6-yl)benzamide], the IC50 turned out to be 324 nM.

As for `Cc1cc(NC(=O)c2ccc(NS(=O)(=O)CCO)cc2N2CCC3(CC2)CC3)cc(N2CCC(F)(F)CC2)n1` [Example 6-30, N-(2-(4,4-Difluoropiperidin-1-yl)-6-methylpyridin-4-yl)-4-((2-hydroxyethyl)sulfonamido)-2-(6-azaspiro[2.5]octan-6-yl)benzamide], the IC50 was 38.4 nM.

Regarding `Cc1cc(NC(=O)c2ccc(NS(=O)(=O)C3(C)CC3)cc2N2CCC3(CC2)CC3)nc(N2CC(F)(F)C2)n1` [Example 11-74, N-(2-(3,3-Difluoroazetidin-1-yl)-6-methylpyrimidin-4-yl)-4-((1-methylcyclopropane)-1-sulfonamido)-2-(6-azaspiro[2.5]octan-6-yl)benzamide], the IC50 is 94 nM.

With `Cc1cc(NC(=O)c2ccc(NS(=O)(=O)C[C@@H](C)O)cc2N2CCC3(CC2)CC3)nc(N2CC(F)(F)C2)n1` (single isomer, unassigned) [Example 10-1], the IC50 stood at 83 nM.

As for `Cc1cc(NC(=O)c2ccc(NS(=O)(=O)CCO)cc2N2CCC3(CC2)CC3)nc(N2CCC3(CC3)C2)n1` [Example 11-25, 4-((2-Hydroxyethyl)sulfonamido)-N-(6-methyl-2-(5-azaspiro[2.4]heptan-5-yl)pyrimidin-4-yl)-2-(6-azaspiro[2.5]octan-6-yl)benzamide], the IC50 worked out at 17.6 nM.

With `CCS(=O)(=O)Nc1ccc(C(=O)Nc2cc(C)nc(N3CCO[C@H](C)C3)n2)c(N2CCC3(CC2)CC3)c1` [Example 6-6, (R)-4-(Ethylsulfonamido)-N-(6-methyl-2-(2-methylmorpholino)pyrimidin-4-yl)-2-(6-azaspiro[2.5]octan-6-yl)benzamide], the IC50 came out at 67 nM.

Turning to `Cc1cc(NC(=O)c2ccc(NS(=O)(=O)C(C)(C)CO)cc2N2CCC3(CC2)CC3)nc(N2CCC(F)(F)CC2)n1` [Example 6-20, N-(2-(4,4-Difluoropiperidin-1-yl)-6-methylpyrimidin-4-yl)-4-((2-hydroxy-1,1-dimethylethyl)sulfonamido)-2-(6-azaspiro[2.5]octan-6-yl)benzamide], the IC50 turned out to be 49 nM.

Turning to `Cc1cc(NC(=O)c2ccc(NS(=O)(=O)CCO)cc2N2CCC3(CC2)CC3)nc(OC2CCC2)n1` [Example 11-4, N-(2-Cyclobutoxy-6-methylpyrimidin-4-yl)-4-((2-hydroxyethyl)sulfonamido)-2-(6-azaspiro[2.5]octan-6-yl)benzamide], the IC50 is 18 nM.

Consider `Cc1cc(NC(=O)c2ccc(NS(=O)(=O)CCO)cc2N2CCC3(CC2)CC3)nc(N2CC(C#N)C2)n1` [Example 11-13, N-(2-(3-Cyanoazetidin-1-yl)-6-methylpyrimidin-4-yl)-4-((2-hydroxyethyl)sulfonamido)-2-(6-azaspiro[2.5]octan-6-yl)benzamide], for which the IC50 was 67 nM.

Turning to `Cc1cc(NC(=O)c2ccc(NS(=O)(=O)[C@H]3CCOC3)cc2N2CCC3(CC2)CC3)nc(N2CC(F)(F)C2)n1` [Example 11-70, (S)-N-(2-(3,3-Difluoroazetidin-1-yl)-6-methylpyrimidin-4-yl)-2-(6-azaspiro[2.5]octan-6-yl)-4-((tetrahydrofuran)-3-sulfonamido)benzamide], the IC50 came to 72 nM.

As for `Cc1cc(NC(=O)c2ccc(NS(=O)(=O)C(C)C)cc2N2CCC3(CC2)CC3)nc(N2CCC(F)(F)CC2)n1` [Example 6-22, N-(2-(4,4-Difluoropiperidin-1-yl)-6-methylpyrimidin-4-yl)-4-((1-methylethyl)sulfonamido)-2-(6-azaspiro[2.5]octan-6-yl)benzamide], the IC50 came to 151 nM.

Take `C[C@@H]1CN(c2nccc(NC(=O)c3ccc(NS(=O)(=O)CCO)cc3N3CCC4(CC3)CC4)n2)CCO1` [Example 6-4, (R)-4-((2-Hydroxyethyl)sulfonamido)-N-(2-(2-methylmorpholino)pyrimidin-4-yl)-2-(6-azaspiro[2.5]octan-6-yl)benzamide]: the IC50 is 32 nM.

Consider `Cc1cc(NC(=O)c2ccc(NS(=O)(=O)[C@H]3CCOC3)cc2N2CCC3(CC2)CC3)nc(N2CCC(F)(F)CC2)n1` [Example 11-72, (S)-N-(2-(4,4-Difluoropiperidin-1-yl)-6-methylpyrimidin-4-yl)-2-(6-azaspiro[2.5]octan-6-yl)-4-((tetrahydrofuran)-3-sulfonamido)benzamide], for which the IC50 came out at 135 nM.

In the case of `Cc1cc(NC(=O)c2ccc(NS(=O)(=O)[C@H](C)CO)cc2N2CCC3(CC2)CC3)nc(N2CC(F)(F)C2)n1` (single isomer, unassigned) [Example 11-76], the IC50 is 20 nM.

In the case of `Cc1cc(NC(=O)c2ccc(NS(=O)(=O)CCO)cc2N2CCC3(CC2)CC3)nc(O[C@@H]2CCOC2)n1` [Example 11-80, (R)-4-((2-Hydroxyethyl)sulfonamido)-N-(6-methyl-2-((tetrahydrofuran-3-yl)oxy)pyrimidin-4-yl)-2-(6-azaspiro[2.5]octan-6-yl)benzamide], the IC50 worked out at 117 nM.

Consider `Cc1cc(NC(=O)c2ccc(NS(=O)(=O)CCO)cc2N2CCC3(CC2)CC3)nc(C2CC2)n1` [Example 11-3, N-(2-Cyclopropyl-6-methylpyrimidin-4-yl)-4-((2-hydroxyethyl)sulfonamido)-2-(6-azaspiro[2.5]octan-6-yl)benzamide], for which the IC50 was determined as 49 nM.

Regarding `Cc1cc(NC(=O)c2ccc(NS(=O)(=O)CCO)cc2N2CCC3(CC2)CC3)nc(N2CCC(C)(O)CC2)n1` [Example 11-38, N-(2-(4-Hydroxy-4-methylpiperidin-1-yl)-6-methylpyrimidin-4-yl)-4-((2-hydroxyethyl)sulfonamido)-2-(6-azaspiro[2.5]octan-6-yl)benzamide], the IC50 was 65 nM.

Turning to `Cc1cc(NC(=O)c2ccc(S(=N)(=O)C(C)C)cc2N2CCC3(CC2)CC3)nc(N2CCC(F)(F)CC2)n1` (stereo not shown) [Example 19-5, N-(2-(4,4-Difluoropiperidin-1-yl)-6-methylpyrimidin-4-yl)-4-(propan-2-ylsulfonimidoyl)-2-(6-azaspiro[2.5]octan-6-yl)benzamide], the IC50 was determined as 175 nM.

For the compound `CC1(NS(=O)(=O)c2ccc(C(=O)Nc3ccnc(C(C)(C)O)n3)c(N3CCC4(CC3)CC4)c2)COC1` [Example 2, N-(2-(2-Hydroxypropan-2-yl)pyrimidin-4-yl)-4-(N-(3-methyloxetan-3-yl)sulfamoyl)-2-(6-azaspiro[2.5]octan-6-yl)benzamide], the IC50 stood at 143 nM.

Take `Cc1cc(NC(=O)c2ccc(NS(=O)(=O)CCO)cc2N2CCC3(CC2)CC3)nc(NC(C)(C)CO)n1` [Example 11-62, N-(2-((1-Hydroxy-2-methylpropan-2-yl)amino)-6-methylpyrimidin-4-yl)-4-((2-hydroxyethyl)sulfonamido)-2-(6-azaspiro[2.5]octan-6-yl)benzamide]: the IC50 worked out at 18 nM.
